Reference: paper PMC6482291, “Anticonvulsant Activity of Pterostilbene in Zebrafish and Mouse Acute Seizure Tests” (Neurochemical Research, 2019)
Like-named read-outs stand apart in the source and are kept apart here.

Key:
[1] = Determination of PTE in mouse serum and brain tissue and pharmacokinetic analysis; assay type: in vivo; conditions: mice, 50 mg/kg ip; for Kp: brain/serum, ip, 50 mg/kg; for concentration at 15 min / concentration at 30 min / concentration at 60 min / concentration at 120 min / concentration at 240 min: mean ± SEM; for MRT: read-out: MRT (mean residence time); for half-life: read-out: t0.5 λz (terminal half-life) (converted); for Tmax: read-out: time of peak concentration following dosing (converted); for k el: read-out: λz (terminal elimination rate constant) (converted)
Method: In order to isolate PTE from biological samples, brains were homogenized in distilled water (1:4, w/v) with a tissue homogenizer TH220 (Omni International, Inc., Warrenton, VA, USA). Aliquots of 0.2–0.3 ml of serum or 0.5–1 ml of brain homogenate were spiked with 10 µl of internal standard (IS) solution containing clonazepam at concentration of 10 µg/ml and vortexed (Reax top, Heidolph, Germany) for 10 s. Both serum samples and brain homogenates were extracted with 3 ml of a mixture of ethyl acetate:hexane (30:70, v/v) for 20 min on a shaker (VXR Vibrax, IKA, Germany). After centrifugation (Universal 32, Hettich, Germany) at 3000 rpm for 15 min, the organic layers ware transferred to new tubes and evaporated to dryness at 37 °C under a gentle stream of nitrogen. The residues were dissolved in 100 µl of methanol and aliquots of 10–50 µl of the solution were injected into the HPLC system. The analysis was performed on a 250 × 4.6 mm LiChrospher®100 RP-18 column with a particle size of 5 µm (Merck, Darmstadt, Germany) protected with a guard column (4 × 4 mm) with the same packing material. The mobile phase was composed of deionized water and acetonitrile mixed at a ratio of 50:50 (v/v) and pumped at a flow rate of 1 ml/min. The column temperature was maintained at 21 °C. The HPLC system (Merck-Hitachi, Darmstadt, Germany) consisted of an L-7100 isocratic pump, an L-7200 autosampler, and a UV variable-wavelength K-2600 detector (Knauer, Berlin, Germany) operating at 321 nm. D-7000 HSM software was used for data acquisition and processing. In these conditions, the retention times of IS and PTE were approximately 5.3 and 12.8 min. The calibration curve constructed by plotting the ratio of the peak area of PTE to IS vs PTE concentrations was linear in the tested concentration ranges. The limit of quantification of the analytical method was 5 ng/ml (or ng/g tissue). […] The extraction efficiencies of PTE and IS were higher than 90%.
Serum and total brain concentrations of PTE were determined in groups consisted of 8 animals. Pharmacokinetic parameters were calculated using non-compartmental analysis in Phoenix WinNonlin v. 7.0 (Pharsight Corporation, a Certara Company, Princeton, NJ, USA).

[2] = parameters: method as in PMID 25047917; conditions: after oral administration; cited from earlier work
mice = experiment: Forced swim test; assay type: in vivo; conditions: PTE 50 to 200 mg/kg ip, data not shown
Method: The forced swim test was carried out according to the method described by Porsolt et al. to assess antidepressant properties of PTE. Mice were placed individually in a glass cylinder (25 cm high; 10 cm diameter) containing tap water to a depth of 11 cm. Water was maintained at temperature of 23–25 °C. Mice were permitted to swim for 6 min and duration of their immobility was recorded during the last 4 min of the test by a trained experimenter who was blinded to the treatment. Immobility time was recorded using cumulative stopwatches. Mouse was considered to be immobile when it was floating in the water without struggling and making no attempts to escape, it was making only these movements necessary to keep its head above the water. After each trial, the water in the cylinder was replaced with fresh water. Experimental groups consisted of 10 animals.
Data obtained in the forced swim test were expressed as the mean (in s) + SEM immobility time in each experimental group. Results were analyzed by one-way ANOVA.

[3] = tested on: maximal electroshock seizures in mice; experiment: Maximal electroshock seizure threshold (MEST) test; assay type: in vivo; conditions: for CS50 (seizure threshold): 30 min before test, 95% confidence limits in brackets
Text: Seizures in the MEST test were evoked by applying a sine-wave alternating current (maximal output voltage 500 V, 50 Hz for 0.2 s) generated by constant current stimulator (Rodent Shocker, Type 221, Hugo Sachs Elektronik, Freiburg, Germany). The stimulation was delivered by saline-socked transcorneal electrodes. Before the stimulation 1% solution of tetracaine hydrochloride was applied into animals’ eyes for local anesthesia. During the stimulation animals were restrained manually and immediately after the stimulation they were placed in the Plexiglas box for observation. The endpoint evaluated in the test was the maximal electroconvulsion which was defined as extension of the hindlimbs above a 90° angle to the torso of animal.
The threshold for maximal electroshock was determined according to the up-and-down method described by Kimball et al.. The mice in the experimental group were subjected to the stimuli with different current intensities (range of 8–30 mA) which changes in 0.06-log steps. If stimulated mouse respond with seizures, the next mouse in the group was stimulated with current of intensity 0.06-log step lower than the previous one. […] Groups of 20 stimulated animals were used to calculate the threshold current strength (CS50 in mA; the current strength which induces tonic hindlimb extension in 50% of the tested animals) with SEM.
CS50 values were compared with one-way ANOVA followed by the Tukey’s multiple comparison test.

[4] = mouse, brain, read-out: Concentration of PTE in brain tissue
[5] = mouse, serum, read-out: Concentration of PTE in serum

With `COc1cc(/C=C/c2ccc(O)cc2)cc(OC)c1` [PTE, trans-3,5-dimethoxy-4′-hydroxy-trans-stilbene] as the molecule, how does the “AUC0–24” value ([1]; brain) read?
Its value is 11.64 µg·h/g.

What about the Kp ([1]; mouse, read-out: brain-to-serum AUC ratio) of the same molecule?
The Kp was 5.15.

And the Kp ([1]; mouse, read-out: brain-to-serum Cmax ratio)?
The Kp was 6.

And the concentration at 15 min [1, 4]?
The concentration at 15 min was 13100 ± 1820 ng/g.

What about the concentration at 30 min [1, 4] of the same molecule?
The concentration at 30 min was 9920 ± 1100 ng/g.

And the concentration at 60 min [1, 4]?
Its concentration at 60 min is 3500 ± 440 ng/g.

And the concentration at 120 min [1, 4]?
The concentration at 120 min was 820 ± 140 ng/g.

What about the concentration at 240 min [1, 4] of the same molecule?
Its concentration at 240 min is 180 ± 60 ng/g.

What about the concentration at 15 min [1, 5] of the same molecule?
The concentration at 15 min was 1760 ± 230 ng/mL.

What about the concentration at 30 min [1, 5] of the same molecule?
Its concentration at 30 min is 1080 ± 160 ng/mL.

What about the concentration at 60 min [1, 5] of the same molecule?
The concentration at 60 min was 550 ± 70 ng/mL.

And the concentration at 120 min [1, 5]?
Its concentration at 120 min is 210 ± 30 ng/mL.

What about the concentration at 240 min [1, 5] of the same molecule?
The concentration at 240 min was 100 ± 60 ng/mL.

What about the Cmax ([1]; mouse, brain) of the same molecule?
The Cmax was 13100 ng/g.

What about the MRT ([1]; mouse, brain) of the same molecule?
Its MRT is 1.09 h.

And the half-life ([1]; mouse, brain)?
The half-life was 1.82 h.

What about the Tmax ([1]; mouse, brain) of the same molecule?
The Tmax was 0.25 h.

And the k el ([1]; mouse, brain)?
Its k el is 0.000106 s⁻¹.

What about the Cmax ([1]; mouse, serum) of the same molecule?
Its Cmax is 2190 ng/mL.

And the AUC(0-t) ([1]; mouse, serum, read-out: AUC0–24)?
The AUC(0-t) was 2260 ng·h/mL.

And the MRT ([1]; mouse, serum)?
Its MRT is 2.62 h.

What about the half-life ([1]; mouse, serum) of the same molecule?
The half-life was 2.64 h.

What about the Tmax ([1]; mouse, serum) of the same molecule?
The Tmax was 0.25 h.

What about the k el ([1]; mouse, serum) of the same molecule?
The k el was 7.22e-05 s⁻¹.

And the “brain concentration of PTE relative to pterostilbene-4’sulphate (main metabolite)” value [2]?
The value was “nearly fivefold higher”.

And the “time of peak in brain tissue” value [2]?
The value was 2 h.

What about the “immobility time vs control” value (mice) of the same molecule?
Its value is “did not significantly reduce”.

And the “CS50 (seizure threshold)” value ([3]; PTE 100 mg/kg ip)?
The value was 11.40 (10.93–11.87) mA.

And the “CS50 (seizure threshold)” value ([3]; PTE 200 mg/kg ip)?
The value was 16.22 (14.80–17.78) mA.

What about the “increase of seizure threshold vs negative control” value ([3]; PTE 200 mg/kg ip, p < 0.001) of the same molecule?
Its value is “over 70%”.

And the “seizure threshold higher than in VPA-treated group (150 mg/kg)” value ([3]; PTE 200 mg/kg ip, p < 0.05)?
The value was 15%.
